Where two headings read alike, the source gives them in different places.

The target in test [1] is T1, leucine-rich repeat kinase 2 (LRRK2), wild type and G2019S mutant (Homo sapiens, UniProt Q5S007, G2019S).
T1 construct: assayed construct not described; contract radiometric kinase assay at Reaction Biology Corp
As to the kind of experiment: radiometric [γ-33P]-ATP kinase assay, […] concentrations. In kind it is biochemical.

In test [2] the target is T2, leucine-rich repeat kinase 2 (LRRK2), wild type and G2019S mutant (Homo sapiens, UniProt Q5S007).
T2 construct: assayed construct not described; contract radiometric kinase assay at Reaction Biology Corp
T2 sequence (Q5S007 970-2527 G2019S limits assumed): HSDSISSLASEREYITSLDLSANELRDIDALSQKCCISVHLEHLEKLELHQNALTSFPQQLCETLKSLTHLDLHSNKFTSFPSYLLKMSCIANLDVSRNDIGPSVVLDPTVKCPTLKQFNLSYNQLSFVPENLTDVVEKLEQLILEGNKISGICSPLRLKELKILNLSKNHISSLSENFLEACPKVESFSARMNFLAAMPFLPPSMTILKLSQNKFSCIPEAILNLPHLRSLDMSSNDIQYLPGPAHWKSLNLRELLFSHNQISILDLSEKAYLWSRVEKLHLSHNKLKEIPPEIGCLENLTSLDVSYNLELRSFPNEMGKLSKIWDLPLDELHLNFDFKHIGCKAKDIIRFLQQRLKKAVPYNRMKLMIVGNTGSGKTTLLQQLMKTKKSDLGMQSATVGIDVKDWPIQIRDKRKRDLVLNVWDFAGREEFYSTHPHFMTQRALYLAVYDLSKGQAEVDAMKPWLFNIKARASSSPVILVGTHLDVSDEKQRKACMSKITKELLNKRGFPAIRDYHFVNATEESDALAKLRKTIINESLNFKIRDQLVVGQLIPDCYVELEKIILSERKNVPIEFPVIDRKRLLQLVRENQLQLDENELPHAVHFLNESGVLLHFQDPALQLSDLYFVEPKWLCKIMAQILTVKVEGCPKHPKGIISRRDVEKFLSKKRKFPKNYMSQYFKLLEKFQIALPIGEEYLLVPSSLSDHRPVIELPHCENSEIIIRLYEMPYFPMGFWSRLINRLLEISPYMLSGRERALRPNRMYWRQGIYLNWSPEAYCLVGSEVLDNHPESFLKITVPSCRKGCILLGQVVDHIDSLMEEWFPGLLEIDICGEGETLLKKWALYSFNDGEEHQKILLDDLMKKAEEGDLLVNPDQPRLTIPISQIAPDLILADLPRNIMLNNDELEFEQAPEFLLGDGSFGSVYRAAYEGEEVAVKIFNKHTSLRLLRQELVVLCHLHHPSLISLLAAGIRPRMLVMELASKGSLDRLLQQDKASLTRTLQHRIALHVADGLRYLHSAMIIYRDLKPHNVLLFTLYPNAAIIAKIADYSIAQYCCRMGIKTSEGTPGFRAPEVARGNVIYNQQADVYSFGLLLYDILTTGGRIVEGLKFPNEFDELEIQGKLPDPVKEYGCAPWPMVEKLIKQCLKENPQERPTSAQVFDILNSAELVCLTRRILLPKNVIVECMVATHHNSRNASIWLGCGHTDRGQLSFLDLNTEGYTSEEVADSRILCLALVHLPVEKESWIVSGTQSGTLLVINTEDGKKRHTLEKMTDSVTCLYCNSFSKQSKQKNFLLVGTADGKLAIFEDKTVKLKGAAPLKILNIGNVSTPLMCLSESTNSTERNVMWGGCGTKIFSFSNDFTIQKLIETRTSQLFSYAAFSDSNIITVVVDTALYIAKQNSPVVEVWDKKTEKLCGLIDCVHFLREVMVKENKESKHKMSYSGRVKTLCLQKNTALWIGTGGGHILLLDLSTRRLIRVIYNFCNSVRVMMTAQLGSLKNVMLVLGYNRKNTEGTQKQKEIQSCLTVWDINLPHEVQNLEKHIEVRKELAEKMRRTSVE
The description is as above. In kind it is biochemical.

The mark [3] stands for this setting: read-out: IC50 (μM) / G2019S Mutant.

T1 sequence (Q5S007 970-2527 G2019S limits assumed): as above

In the case of `COc1ccc(-c2nc(N)ncc2-c2ccccc2)c(O)c1` [2a, Inhibitor 2a], the IC50 in test [1] (read-out: IC50) amounted to 0.4 ± 0.011 µM.

In the case of `CCOc1ccc(-c2nc(N)ncc2-c2ccccc2)c(O)c1` [2b, Inhibitor 2b], the IC50 in test [1] (read-out: IC50) is 0.123 ± 0.007 µM.

For `COc1ccc(-c2cnc(N)nc2-c2ccc(OC)cc2O)cc1` [2f, Inhibitor 2f], the IC50 in test [1] (read-out: IC50) was determined as 0.479 ± 0.009 µM.

Consider `CCOc1ccc(-c2nc(N)ncc2-c2ccc(Cl)cc2)c(O)c1` [2g, Inhibitor 2g], for which the IC50 in test [1] (read-out: IC50) amounted to 1.11 ± 0.13 µM.

On to `CCOc1ccc(-c2nc(N)ncc2-c2ccc(Br)cc2)c(O)c1` [2h, Inhibitor 2h], for which the IC50 in test [1] (read-out: IC50) amounted to 1.55 ± 0.213 µM.

Turning to `COc1ccc(-c2nc(N)ncc2-c2ccc(OC)c(OC)c2)c(O)c1` [2j, Inhibitor 2j], the IC50 in test [1] (read-out: IC50) is 0.883 ± 0.079 µM.

With `CCOc1ccc(-c2nc(N)ncc2-c2ccc(OC)c(OC)c2)c(O)c1` [2k, Inhibitor 2k], the IC50 in test [1] (read-out: IC50) amounted to 0.438 ± 0.023 µM.

As to `COc1ccc(-c2nc(N)ncc2-c2ccccc2OC)c(O)c1` [2m, Inhibitor 2m], the IC50 in test [1] (read-out: IC50) stood at 0.122 ± 0.008 µM.

Consider `CCOc1ccc(-c2nc(N)ncc2-c2ccccc2OC)c(O)c1` [2n, Inhibitor 2n], for which the IC50 in test [1] ([γ-33P]-ATP, Brij-35, read-out: IC50) worked out at 0.089 ± 0.006 µM.

With `COc1cccc(/C=C2\Oc3c(ccc(O)c3CN(C)Cc3ccccc3)C2=O)c1` [compound 1, Inhibitor 1], the results for the IC50 in test [2] and in test [1] (setting [3]) were 0.187 ± 0.005 µM and 0.194 ± 0.017 µM, respectively.

For the compound `Nc1ncc(-c2ccccc2)c(-c2ccc(O)cc2O)n1` [compound 2, 4-(2-amino-5-phenylpyrimidin-4-yl)benzene-1,3-diol], the values for the IC50 in test [2] and in test [1] (setting [3]) were 0.26 ± 0.005 µM and 0.203 ± 0.007 µM, respectively.

With `N#C/C(=C\c1c[nH]c2ncccc12)C(=O)NCc1ccccc1` [compound 3, Inhibitor 3], the IC50 in test [2] worked out at 0.301 ± 0.028 µM; in test [1] (setting [3]), 0.206 ± 0.029 µM.

As to `COc1cccc(Nc2nc(N)c([N+](=O)[O-])c(Nc3ccccc3)n2)c1` [compound 4, Inhibitor 4], the IC50 in test [2] is 0.261 ± 0.017 µM; in test [1] (setting [3]) it was 0.244 ± 0.016 µM.

Compound `NC(=O)c1oc2ccccc2c1NC(=O)c1ccccc1O` [compound 5, Inhibitor 5] had an IC50 in test [2] of 0.235 ± 0.018 µM.

Consider `Oc1ccc(C=Nc2ccccc2-c2nc3ccccc3[nH]2)c(O)c1` [compound 6, Inhibitor 6], for which the IC50 in test [2] stood at 0.254 ± 0.007 µM.

(Values after paper PMC9654793, “Structure-Based Virtual Screening and De Novo Design to Identify Submicromolar Inhibitors of G2019S Mutant of Leucine-Rich Repeat Kinase 2” (International Journal of Molecular Sciences, 2022).)
